Data reported in US10919941B2, “Functional lipid constructs” (KODE BIOTECH LIMITED, priority 2007, dated 2021).
No end group written: not given here.

How the values were obtained:
[1] = test system: antibody negative serums; test: False positive reactions of modified RBCs with antibody negative serums/plasma; assay type: cell-based, human; design: key to Reaction score BioVue AHG, PAC samples 1-46, 49, 50, 52, 53 / Reaction score BioVue AHG, PAC sample 47 / Reaction score BioVue AHG, PAC sample 48 / Reaction score BioVue AHG, PAC sample 51 / agglutination score, T series serum 2 / agglutination score, T series serum 42 / agglutination score, T series serum 63 / agglutination score, T series serum 62 / agglutination score, T series serum 7 / agglutination score, T series serum 20 / agglutination score, T series serum 48 / agglutination score, T series serum 22 / agglutination score, T series serum 39 / agglutination score, T series serum 23 / agglutination score, T series serum 30 / agglutination score, T series serum 4 / agglutination score, T series serum 31 / agglutination score, T series serum 44 / agglutination score, T series serum 61 / agglutination score, T series serum 18 / agglutination score, T series serum 21 / agglutination score, T series serum 28 / agglutination score, T series serum 55 / agglutination score, false positive serum T18 / agglutination score, false positive serum T21 / agglutination score, false positive serum T28 / agglutination score, false positive serum T55 / agglutination score, false positive serum T78 / agglutination score, false positive serum T92: 0 or ‘−’ no agglutination; 0 or ‘−’ no agglutination; 1+ or 3=very weak agglutination; 1+ or 3=very weak agglutination; 2+ or 5=weak agglutination; 2+ or 5=weak agglutination; 3+ or 8=moderate strong agglutination; 3+ or 8=moderate strong agglutination; 4+ or 10/12=strong agglutination; 4+ or 10/12=strong agglutination; 4+ or 10/12=strong agglutination
[2] = test system: TAP1 serum (Taiwan Miltenberger antibody positive sample); test: Anti-MUT serum (TAP1) reactivity of modified RBCs (saline and AHG); assay type: cell-based, human; design: key: 0 or ‘−’ no agglutination; 0 or ‘−’ no agglutination; 1+ or 3=very weak agglutination; 1+ or 3=very weak agglutination; 2+ or 5=weak agglutination; 2+ or 5=weak agglutination; 3+ or 8=moderate strong agglutination; 3+ or 8=moderate strong agglutination; 4+ or 10/12=strong agglutination; 4+ or 10/12=strong agglutination; 4+ or 10/12=strong agglutination; conditions: construct 50 μg/ml
Description: (§1) The suspensions are either: • 1. incubated for 2 hours at 37° C. before being washed and suspended in a cell medium for serological analysis at a concentration of 0.8 to 3% (Method 1); or • 2. incubated for 3 to 4 hours at room temperature (circa 25° C.) followed by 18 hours at 4° C. before being washed and suspended in a cell medium for serological analysis at a concentration of 0.8 to 3% (Method 2).
(§2) Serological reactions are graded or scored by either of two established systems (0 or ‘−’ no agglutination, 1+ or 3=very weak agglutination, 2+ or 5=weak agglutination, 3+ or 8=moderate strong agglutination, 4+ or 10/12=strong agglutination)

[3] = test system: Miltenberger Antibody Positive Panel; test: Reactivity of modified RBCs against the Miltenberger Antibody Positive Panel; assay type: cell-based, human; design: key to score vs panel 15 TAP2 / score vs panel 4 T7202 / score vs panel 8 T5896 / score vs panel 2 T217 / score vs panel 3 T165 / score vs panel 14 TAP1 / score vs panel 10 Mia / score vs panel 11 Mur / score vs panel 12 Gam / score vs panel 6 T6025 / score vs panel 7 T8445 / score vs panel 9 MIII / score vs panel 13 BoxH / reactivity with Panel Serum #7 (T8445) / agglutination score, Panel Serum #7 (T8445): 0 or ‘−’ no agglutination; 0 or ‘−’ no agglutination; 1+ or 3=very weak agglutination; 1+ or 3=very weak agglutination; 2+ or 5=weak agglutination; 2+ or 5=weak agglutination; 3+ or 8=moderate strong agglutination; 3+ or 8=moderate strong agglutination; 4+ or 10/12=strong agglutination; 4+ or 10/12=strong agglutination; 4+ or 10/12=strong agglutination
[4] = test system: natural Mi III antibody reactive human serums; test: Positive serum reactivity of modified RBCs in the field; assay type: cell-based; design: key: 0 or ‘−’ no agglutination; 0 or ‘−’ no agglutination; 1+ or 3=very weak agglutination; 1+ or 3=very weak agglutination; 2+ or 5=weak agglutination; 2+ or 5=weak agglutination; 3+ or 8=moderate strong agglutination; 3+ or 8=moderate strong agglutination; 4+ or 10/12=strong agglutination; 4+ or 10/12=strong agglutination; 4+ or 10/12=strong agglutination; conditions: 22 at 50, 17 and 24 at 200 μg/ml; 3 h RT then 18 h 4° C.
Description: as §1, §2

[5] = cells modified at 50 μg/ml, 2 hour 37° C., BioVue AHG cards
[6] = larger series = 102, cells modified at 50 μg/ml, 2 hour 37° C., BioVue AHG cards

## M17: DOPE peptide-lipid construct: Mur peptide TYPAHTANEV, leader c, spacer CMG(2) (TYPAHTANEVC; also: DOPE peptide-lipid construct via leader Cys, spacer CMG(2))
[1]; T series reactives (n = 58), BioVue AHG cards
  % positive: 33%
[1]; [5]
  agglutination score, T series serum 2: 10
  agglutination score, T series serum 4: 8
  agglutination score, T series serum 7: 8
  agglutination score, T series serum 18: 12
  agglutination score, T series serum 20: 8
  agglutination score, T series serum 21: 12
  agglutination score, T series serum 22: 8
  agglutination score, T series serum 23: 3
  agglutination score, T series serum 28: 12
  agglutination score, T series serum 30: 3
  agglutination score, T series serum 31: 8
  agglutination score, T series serum 39: 5
  agglutination score, T series serum 42: 10
  agglutination score, T series serum 44: 10
  agglutination score, T series serum 48: 8
  agglutination score, T series serum 55: 12
  agglutination score, T series serum 61: 10
  agglutination score, T series serum 62: 8
  agglutination score, T series serum 63: 10
[1]; [6]
  agglutination score, false positive serum T18: 12
  agglutination score, false positive serum T21: 12
  agglutination score, false positive serum T28: 12
  agglutination score, false positive serum T55: 12
  agglutination score, false positive serum T78: 12
  agglutination score, false positive serum T92: 12
[1]; n = 102 negative serum samples
  number of negative serums with score 0: 65
  number of negative serums with score 3: 3
  number of negative serums with score 8-5: 18
  number of negative serums with score 12-10: 17
  share of negative serums with score 0: 64%
  share of negative serums with score 3: 3%
  share of negative serums with score 8-5: 18%
  share of negative serums with score 12-10: 17%
[2]
  TAP 1 Serum, AHG score: 0
  TAP 1 Serum, Saline score: 0
[3]; Table 9, construct 100 μg/ml
  score vs panel 2 T217: 0
  score vs panel 3 T165: 10
  score vs panel 4 T7202: 8
  score vs panel 6 T6025: 10
  score vs panel 7 T8445: 10
  score vs panel 8 T5896: 0
  score vs panel 9 MIII: 0
  score vs panel 10 Mia: 0
  score vs panel 11 Mur: 0
  score vs panel 12 Gam: 0
  score vs panel 15 TAP2: 0
[3]; [5]
  agglutination score, Panel Serum #7 (T8445): 10
[3]; construct 50 μg/ml (2 hours, 37° C.)
  reactivity with Panel Serum #7 (T8445): 10
[4]
  score vs Mi III reactive serum 912485657-9: 3
  score vs Mi III reactive serum 914146821-8: 10
  score vs Mi III reactive serum 922390844-5: 12
  score vs Mi III reactive serum 926190919-0: 3
  score vs Mi III reactive serum 926555294-1: 0
  score vs Mi III reactive serum 927175131-4: 0
  score vs Mi III reactive serum 927299700-1: 0
  score vs Mi III reactive serum 927516053-2: 0
  score vs Mi III reactive serum 927619701-8: 3
  score vs Mi III reactive serum 932360876-4: 0
  score vs Mi III reactive serum 932467774-5: 0
  score vs Mi III reactive serum 932809044-1: 8
  score vs Mi III reactive serum 942223755-1: 5
  score vs Mi III reactive serum 942404708-4 (row interpreted Mur): 5
  score vs Mi III reactive serum 942404708-4 (row interpreted other): 0
  score vs Mi III reactive serum 942421413-0: 5
  score vs Mi III reactive serum 942423002-4: 0
  score vs Mi III reactive serum 942433813-3: 8
  score vs Mi III reactive serum 942433855-3: 8
  score vs Mi III reactive serum 942442720-2: 5
  score vs Mi III reactive serum 942448627-8: 0
  score vs Mi III reactive serum 942753165-4: 8
  score vs Mi III reactive serum 942762589-1: 0
  score vs Mi III reactive serum 9322338631: 10
  score vs Mi III reactive serum 9325490091: 5
  score vs Mi III reactive serum 9327986660: 3
  score vs Mi III reactive serum 9328118428: 10
  score vs Mi III reactive serum 9328154853: 10
  score vs Mi III reactive serum 9328791834: 3
  score vs Mi III reactive serum 9424248012: 0
  score vs Mi III reactive serum 9424292604: 8
  score vs Mi III reactive serum 9424396133: 0
  score vs Mi III reactive serum 9425256505: 8
  score vs Mi III reactive serum 9427455417: 5
  score vs Mi III reactive serum 9427613497: 0
  score vs Mi III reactive serum 9427615156: 0
  score vs Mi III reactive serum S-3: 3
